The record followed here is article PMC6758606, “Novel 2-substituted-benzimidazole-6-sulfonamides as carbonic anhydrase inhibitors: synthesis, biological evaluation against isoforms I, II, IX and XII and molecular docking studies” (Journal of Enzyme Inhibition and Medicinal Chemistry, 2019).

Common to all, as to type: biochemical
One experiment deals with T1, hCA I (Homo sapiens, UniProt P00915).
T1 construct: made in house
In words: stopped-flow CO2 hydrase assay, hCA I. As to conditions: recombinant enzyme, mean from 3 different assays, errors ± 5–10%. As for the experimental part:
(§1) An Applied Photophysics stopped-flow instrument has been used for assaying the CA-catalysed CO2 hydration activity. Phenol red (at a concentration of 0.2 mM) has been used as indicator, working at the absorbance maximum of 557 nm, with 20 mM Hepes (pH 7.5) as buffer, and 20 mM Na2SO4 (for maintaining constant the ionic strength), following the initial rates of the CA-catalysed CO2 hydration reaction for a period of 10–100 s. CO2 concentrations ranged from 1.7 to 17 mM for the determining inhibition constants. […] Uncatalyzed rates were determined in the same manner and subtracted from the total observed rates. Stock solutions of inhibitor (0.1 mM) were prepared in buffer with a maximum 3% DMSO, and dilutions up to 0.01 nM were done with the assay buffer. Inhibitor and enzyme solutions were preincubated for 15 min at room temperature prior to assay, in order to allow for the formation of the E–I complex. The inhibition constants were obtained by nonlinear least-squares methods using PRISM 3 and the Cheng-Prusoff equation, as reported earlier, and represent the mean from at least three different determinations. All CA isoforms were recombinant ones obtained in-house as reported earlier.
(§2) AAZ 1 was used as the standard drug in the assay.

The target in the next experiment is T2, hCA II (Homo sapiens, UniProt P00918).
T2 construct: made in house
In words: stopped-flow CO2 hydrase assay, hCA II. Particulars: recombinant enzyme, mean from 3 different assays, errors ± 5–10%. The method, then:
as §1, §2

Another experiment addresses T3, hCA IX (Homo sapiens, UniProt Q16790).
T3 construct: made in house
The experiment can be described thus: stopped-flow CO2 hydrase assay, hCA IX. As to conditions: for Ki: recombinant enzyme, stopped-flow CO2 hydrase assay, mean from 3 different assays, errors ± 5–10%; for SR IX/II (Selectivity Ratio): selectivity for inhibiting hCA IX over hCA II (values equal Ki hCA II / Ki hCA IX). As for the experimental part: as §1, §2

In the next experiment the target is T4, hCA XII (Homo sapiens, UniProt O43570).
T4 construct: made in house
T4 sequence (O43570 25-354): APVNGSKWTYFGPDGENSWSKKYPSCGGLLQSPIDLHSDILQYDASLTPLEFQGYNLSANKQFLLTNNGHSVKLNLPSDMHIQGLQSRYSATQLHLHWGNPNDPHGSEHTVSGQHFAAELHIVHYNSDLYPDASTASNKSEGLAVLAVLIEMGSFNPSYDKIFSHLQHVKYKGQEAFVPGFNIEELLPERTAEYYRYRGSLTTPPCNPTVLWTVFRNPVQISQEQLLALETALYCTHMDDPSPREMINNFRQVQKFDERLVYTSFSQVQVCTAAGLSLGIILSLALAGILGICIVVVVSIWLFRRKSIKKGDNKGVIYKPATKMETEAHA
In words: stopped-flow CO2 hydrase assay, hCA XII. As to conditions: for Ki: recombinant enzyme, stopped-flow CO2 hydrase assay, mean from 3 different assays, errors ± 5–10%; for SR XII/II (Selectivity Ratio): selectivity for inhibiting hCA XII over hCA II (values equal Ki hCA II / Ki hCA XII). The method, then: as §1, §2

T1 sequence (P00915 whole entry): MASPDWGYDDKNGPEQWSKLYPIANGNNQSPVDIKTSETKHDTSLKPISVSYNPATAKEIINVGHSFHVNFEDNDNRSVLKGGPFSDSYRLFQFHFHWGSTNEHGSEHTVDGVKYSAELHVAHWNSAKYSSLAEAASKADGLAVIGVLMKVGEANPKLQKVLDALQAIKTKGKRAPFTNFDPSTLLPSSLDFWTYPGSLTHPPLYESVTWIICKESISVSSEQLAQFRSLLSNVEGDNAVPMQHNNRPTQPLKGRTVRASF

Usually Ki stands for a measure of affinity in units of concentration, obtained from inhibition or displacement. As for `COC(=O)c1cc(-c2nc3ccc(S(N)(=O)=O)cc3[nH]2)ccc1O` [Compound 13, Methyl 2-hydroxy-5-(6-sulfamoyl-1H-benzo[d]imidazol-2-yl)benzoate], the Ki was 126 nM on hCA I, 50.8 nM on hCA II, 2.2 nM at hCA IX and 22.3 nM at hCA XII. Also, the “SR IX/II (Selectivity Ratio)” value at hCA IX is given as 23.1. For the same compound, the “SR XII/II (Selectivity Ratio)” value at hCA XII is 2.3.
On to `NS(=O)(=O)c1ccc2nc(CCc3ccc(O)c(C(=O)O)c3)[nH]c2c1` [Compound 18, 2-Hydroxy-5-(2-(6-sulfamoyl-1H-benzo[d]imidazol-2-yl)ethyl)benzoic acid], for which the Ki at hCA I came out at 441 nM; on hCA II it was 24.8 nM; on hCA IX, 7.6 nM; at hCA XII it was 4.2 nM. For the same compound, the “SR IX/II (Selectivity Ratio)” value at hCA IX was found to be 3.3. Also, the “SR XII/II (Selectivity Ratio)” value on hCA XII was determined as 5.9.
Regarding `NS(=O)(=O)c1ccc2nc(Cc3ccc(O)cc3)[nH]c2c1` [Compound 7, 2-(4-Hydroxybenzyl)-1H-benzo[d]imidazole-6-sulfonamide], the inhibition constant (Ki) on hCA I is 442 nM; on hCA II it was 91.9 nM; at hCA IX, 73.9 nM; at hCA XII, 63.8 nM. In addition, the “SR IX/II (Selectivity Ratio)” value at hCA IX is recorded as 1.2. Also, the “SR XII/II (Selectivity Ratio)” value on hCA XII was 1.4.
As to `COC(=O)c1cc(CCc2nc3ccc(S(N)(=O)=O)cc3[nH]2)ccc1O` [Compound 17, Methyl 2-hydroxy-5-(2-(6-sulfamoyl-1H-benzo[d]imidazol-2-yl)ethyl)benzoate], the Ki on hCA I was 427 nM; on hCA II, 52.7 nM; at hCA IX, 5.9 nM; at hCA XII, 7.9 nM. At hCA IX, the “SR IX/II (Selectivity Ratio)” value is 8.9. Also, the “SR XII/II (Selectivity Ratio)” value at hCA XII was 6.7.
Regarding `NS(=O)(=O)c1ccc2nc(-c3ccc(O)cc3)[nH]c2c1` [Compound 6, 2-(4-Hydroxyphenyl)-1H-benzo[d]imidazole-6-sulfonamide], the Ki at hCA I amounted to 238 nM; at hCA II, 101 nM; at hCA IX, 17.4 nM; on hCA XII, 44.1 nM. Also, the “SR IX/II (Selectivity Ratio)” value on hCA IX is given as 5.8. On hCA XII, the “SR XII/II (Selectivity Ratio)” value is listed as 2.3.
With `CCNS(=O)(=O)c1ccc2nc(-c3ccc(O)c(C(=O)OC)c3)[nH]c2c1` [Compound 15, Methyl 5-(6-(N-ethylsulfamoyl)-1H-benzo[d]imidazol-2-yl)-2-hydroxybenzoate], the Ki was over 10000 nM on hCA I, 8920 nM on hCA II, 390 nM at hCA IX and 813 nM on hCA XII.
On to `NS(=O)(=O)c1ccc2nc(-c3ccc(O)c(C(=O)O)c3)[nH]c2c1` [Compound 14, 2-hydroxy-5-(6-sulfamoyl-1H-benzo[d]imidazol-2-yl)benzoic acid], for which the Ki at hCA I was determined as 95.6 nM; on hCA II, 68.6 nM; at hCA IX, 34.2 nM; on hCA XII, 3.8 nM. Moreover, the “SR IX/II (Selectivity Ratio)” value on hCA IX was found to be 2.0. On hCA XII, the “SR XII/II (Selectivity Ratio)” value was 18.1.
For `COC(=O)c1ccc(-c2nc3ccc(S(N)(=O)=O)cc3[nH]2)cc1` [Compound 10, Methyl 4-(6-sulfamoyl-1H-benzo[d]imidazol-2-yl)benzoate], the Ki at hCA I turned out to be 208 nM; on hCA II, 185 nM; on hCA IX it was 29.6 nM; at hCA XII it was 72.2 nM. Further, the “SR IX/II (Selectivity Ratio)” value at hCA IX is 6.3. The “SR XII/II (Selectivity Ratio)” value at hCA XII is listed as 2.6.
Regarding `NS(=O)(=O)c1ccc2nc(-c3ccc(O)c(O)c3)[nH]c2c1` [Compound 12, 2-(3,4-Dihydroxyphenyl)-1H-benzo[d]imidazole-6-sulfonamide], the Ki on hCA I came out at 169 nM; at hCA II, 79 nM; at hCA IX, 41.6 nM; at hCA XII, 8.5 nM. In addition, the “SR IX/II (Selectivity Ratio)” value on hCA IX is 1.9.
For the compound `NC(=O)c1ccc2nc(-c3ccc(O)c(C(=O)O)c3)[nH]c2c1` [Compound 19, 5-(6-Carbamoyl-1H-benzo[d]imidazol-2-yl)-2-hydroxybenzoic acid], the inhibitory constant (Ki) on hCA I, on hCA II, at hCA IX and on hCA XII was over 10000 nM throughout.
Consider `NS(=O)(=O)c1ccc2nc(CCc3ccc(O)cc3)[nH]c2c1` [Compound 8, 2-(4-Hydroxyphenethyl)-1H-benzo[d]imidazole-6-sulfonamide], for which the Ki came out at 214 nM on hCA I, 47.8 nM on hCA II, 14.4 nM at hCA IX and 9.8 nM at hCA XII. For the same compound, the “SR IX/II (Selectivity Ratio)” value on hCA IX worked out at 3.3. In addition, the “SR XII/II (Selectivity Ratio)” value at hCA XII turned out to be 4.9.
With `CCNS(=O)(=O)c1ccc2nc(-c3ccc(O)c(C(=O)O)c3)[nH]c2c1` [Compound 16, 5-(6-(N-ethylsulfamoyl)-1H-benzo[d]imidazol-2-yl)-2-hydroxybenzoic acid], the Ki was over 10000 nM at hCA I, 7580 nM at hCA II, 665 nM at hCA IX and 464 nM on hCA XII.
`NS(=O)(=O)c1ccc2nc(-c3ccccc3)[nH]c2c1` [Compound 9, 2-Phenyl-1H-benzo[d]imidazole-6-sulfonamide]: the Ki on hCA I stood at 92.8 nM; on hCA II it was 104 nM; on hCA IX it was 47.6 nM; at hCA XII, 78.9 nM. The “SR IX/II (Selectivity Ratio)” value on hCA IX was found to be 2.2. Also, the “SR XII/II (Selectivity Ratio)” value at hCA XII stood at 1.3.
For the compound `NS(=O)(=O)c1ccc2nc(-c3ccc(C(=O)O)cc3)[nH]c2c1` [Compound 11, 4-(6-Sulfamoyl-1H-benzo[d]imidazol-2-yl)benzoic acid], the Ki at hCA I stood at 97.6 nM; at hCA II, 133 nM; on hCA IX, 64.3 nM; at hCA XII, 57 nM. Also, the “SR IX/II (Selectivity Ratio)” value on hCA IX is listed as 2.1. The “SR XII/II (Selectivity Ratio)” value at hCA XII stood at 2.3.
